Data from patent publication US8003692B2 (priority 2007, dated 2011).
Values joined by “and” are separate entries in the source; they are usually repeats but may differ in a detail not shown here. Identical values can stand only once. “Also recorded” adds a separate entry of the source. Like-named read-outs stand apart in the source and are kept apart here.

Key:
[1] = biological target: anthrax edema factor (EF) (Bacillus anthracis, UniProt P40136); assay: cell-based
Cholera toxin (CT) = conditions: mouse, in vivo
cholera toxin = assay type: cell-based, Vibrio cholerae
[2] = tested on: bacterial adhesion to HeLa cells; assay type: cell-based
[3] = tested on: bacterial adhesion to Caco-2 cells; assay type: cell-based
physchem = conditions: organic solvent or mixture
[4] = tested on: ETEC H10507 or other enteric bacteria; assay type: cell-based, E. coli and Salmonella
[5] = tested on: Enterotoxigenic E. coli (ETEC); conditions: mouse, in vivo

anthrax edema factor (EF), sequence (P40136 whole entry, looked up): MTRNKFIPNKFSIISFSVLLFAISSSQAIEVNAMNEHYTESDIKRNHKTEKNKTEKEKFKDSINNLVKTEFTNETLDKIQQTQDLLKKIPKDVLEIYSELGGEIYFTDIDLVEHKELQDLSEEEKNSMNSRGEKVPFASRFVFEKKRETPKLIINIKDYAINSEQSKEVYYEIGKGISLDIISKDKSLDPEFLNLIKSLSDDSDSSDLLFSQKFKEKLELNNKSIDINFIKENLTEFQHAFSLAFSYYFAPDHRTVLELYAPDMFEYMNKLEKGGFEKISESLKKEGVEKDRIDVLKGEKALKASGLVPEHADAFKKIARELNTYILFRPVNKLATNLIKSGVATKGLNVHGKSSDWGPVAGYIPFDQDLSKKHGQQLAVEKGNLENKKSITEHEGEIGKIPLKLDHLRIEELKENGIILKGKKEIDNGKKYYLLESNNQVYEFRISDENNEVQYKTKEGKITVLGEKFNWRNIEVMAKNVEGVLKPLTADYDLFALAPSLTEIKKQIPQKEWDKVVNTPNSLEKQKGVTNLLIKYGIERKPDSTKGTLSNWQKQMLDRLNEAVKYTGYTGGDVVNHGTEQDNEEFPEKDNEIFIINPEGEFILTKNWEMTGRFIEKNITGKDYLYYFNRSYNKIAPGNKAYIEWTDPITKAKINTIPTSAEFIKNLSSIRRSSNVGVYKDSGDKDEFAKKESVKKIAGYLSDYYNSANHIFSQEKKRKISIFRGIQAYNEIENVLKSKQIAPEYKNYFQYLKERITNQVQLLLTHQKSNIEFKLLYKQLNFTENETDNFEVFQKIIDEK

COc1cccc([C@H]2Nc3ccc(C(=O)O)cc3[C@@H]3C=CC[C@H]23)c1 (stereo in doubt) [FII-1, 4-(3-methoxy-phenyl)-3a,4,5,9b-tetrahydro-3H-cyclopenta[c]quinoline-8-carboxylic acid]
cytotoxicity in LDH assay (in words) (RAW 264.7 cells): no obvious cytotoxic effect | inhibition of EF / Edema Toxin induced cAMP production (in words) [1]: effective; also recorded: more active than PGE2-imidazole | IC50 ([1]; IC50 values): 1.8 to 7 µM | Reduction of fluid accumulation (Cholera toxin (CT)): No* | Toxicity (Cholera toxin (CT)): No | accumulation of intestinal fluid after experimental infection with CT (in words) (Cholera toxin (CT)): did not cause a significant reduction in fluid accumulation | toxic effects in the animals (in words) (Cholera toxin (CT)): Toxic effects were observed

COc1cccc(C2=CC(=O)CC(c3ccco3)C2)c1 (centres unmarked) [FI-1, 5-Furan-2-yl-3-(3-methoxy-phenyl)-cyclohex-2-enone]
inhibition of cholera toxin induced cAMP (in words) (cholera toxin): did not inhibit | inhibition of EF / Edema Toxin induced cAMP production (in words) [1]: did not inhibit | IC50 ([1]; IC50): 20 µM | IC50 ([1]; Selected assay results (IC50)): 20.4 µM and > 100 µM | toxic effects in the animals (in words) (Cholera toxin (CT); Swiss-Webster): toxic effects similar to FI-2 | Reduction of fluid accumulation (Cholera toxin (CT)): No | Toxicity (Cholera toxin (CT)): Yes | accumulation of intestinal fluid after experimental infection with CT (in words) (Cholera toxin (CT)): did not cause a reduction in fluid accumulation

COc1cccc(C2=CC(=O)CC(c3ccc(F)cc3)C2)c1 (centres unmarked) [FI-2, 5-(4-Fluoro-phenyl)-3-(3-methoxy-phenyl)-cyclohex-2-enone]
cytotoxicity in LDH assay (in words) (RAW 264.7 cells): minimal cytotoxic effect | inhibition of EF / Edema Toxin induced cAMP production (in words) [1]: cAMP inhibitory activity | IC50 ([1]; IC50): 28 µM | IC50 ([1]; Selected assay results (IC50)): 21.4 µM and 27.3 µM | toxic effects in the animals (in words) (Cholera toxin (CT); Swiss-Webster): number of animals surviving the full 6 hour of the incubation was reduced by half | Reduction of fluid accumulation (Cholera toxin (CT)): Yes | Toxicity (Cholera toxin (CT)): No | toxic effects in the animals (in words) (Cholera toxin (CT)): highly toxic

COc1cccc(C2=C(C)C(=O)CC2)n1 [FI-3, 3-(6-Methoxy-pyridin-2-yl)-2-methyl-cyclopent-2-enone]
inhibition of cholera toxin induced cAMP (in words) (cholera toxin): most consistently been active; also recorded: inhibits cholera toxin induced cAMP, but not quite as well as PGE2-imidazole | inhibition of EF / Edema Toxin induced cAMP production (in words) [1]: most consistently been active; also recorded: dose-dependent activity and reduced extracellular cAMP accumulation | IC50 ([1]; Selected assay results (IC50)): 38.8 µM and 64.1 µM and 11.1 µM and 29.4 µM | IC50 ([1]; read-out: IC50): 30 µM | IC50 ([1]; read-out: Selected assay results (IC50)): 29.9 µM | toxic effects in the animals (in words) (Cholera toxin (CT); Swiss-Webster): several animals treated with the CT+FI-3 mixture died | Reduction of fluid accumulation (Cholera toxin (CT)): Yes | toxic effects in the animals (in words) (Cholera toxin (CT)): displayed edema, blood and fluid accumulation

COc1cccc(C2=CC(=O)CCC2)n1 [FI-9, 3-(6-Methoxy-pyridin-2-yl)-cyclohex-2-enone]
inhibition of EF / Edema Toxin induced cAMP production (in words) [1]: not active

COc1ccc(C2=C(C)C(=O)CC2)cn1 [FI-14, 3-(6-Methoxy-pyridin-3-yl)-2-methyl-cyclopent-2-enone]
inhibition of EF / Edema Toxin induced cAMP production (in words) [1]: good activity | IC50 ([1]; read-out: IC-50): 24 µM

COc1cccc(C2=CC(=O)CCC2)c1 [FI-15, 3-(3-Methoxy-phenyl)-cyclohex-2-enone]
IC50 ([1]; read-out: IC-50): 30 µM

O=C1C=C(c2ccc3[nH]ccc3c2)CCC1 [FI-17, 3-(1H-Indol-5-yl)-cyclohex-2-enone]
inhibition of EF / Edema Toxin induced cAMP production (in words) [1]: comparable activity to the best compounds | IC50 ([1]; read-out: IC-50): 56 µM

O=C1C=C(c2ccc3c(c2)OCO3)CCC1 [FI-18, 3-Benzo[1,3]dioxol-5-yl-cyclohex-2-enone]
IC50 ([1]; read-out: IC-50): 53 µM

COc1cccc(C2=C(C)C(=O)CC2)n1 [FI-21, 3-(6-Methoxy-pyridin-2-yl)-2-methyl-cyclopent-2-enone]
inhibition of EF / Edema Toxin induced cAMP production (in words) [1]: good activity | IC50 ([1]; read-out: IC-50): 30 µM

COc1ccccc1C1=CC(=O)CCC1 [FI-27, 3-(2-Methoxy-phenyl)-cyclohex-2-enone]
IC50 ([1]; read-out: IC-50): 35 µM

O=C(O)c1ccc(/N=C/c2c3ccccc3cc3ccccc23)cc1O [FIII-1, 4-[(Anthracen-9-ylmethylene)-amino]-2-hydroxy-benzoic acid]
inhibition of EF / Edema Toxin induced cAMP production (in words) [1]: more active than PGE2-imidazole | IC50 ([1]; read-out: IC50 values): 9 µM

COc1ccc(C(=O)O)cc1NC(=O)c1cccc2c1C(=O)c1ccccc1-2 [FIV-1, 4-Methoxy-3-[(9-oxo-9H-fluorene-1-carbonyl)-amino]-benzoic acid]
IC50 ([1]; IC50): 5.8 µM

O=C(O)c1cc(NC(=O)c2cccc3c2C(=O)c2ccccc2-3)ccc1O [FIV-35, 2-Hydroxy-5-[(9-oxo-9H-fluorene-1-carbonyl)-amino]-benzoic acid]
IC50 ([1]; IC50): 6.2 µM

O=C(O)c1cccc(NC(=O)c2cccc3c2C(=O)c2ccccc2-3)c1O [FIV-39, 2-Hydroxy-3-[(9-oxo-9H-fluorene-1-carbonyl)-amino]-benzoic acid]
IC50 ([1]; IC50): 5.6 µM

O=C(O)c1cccc(NC(=O)c2cccc3c2C(=O)c2ccccc2-3)c1 [FIV-50, 3-[(9-Oxo-9H-fluorene-1-carbonyl)-amino]-benzoic acid]
cytotoxicity in LDH assay (in words) (RAW 264.7 cells): no obvious cytotoxic effect | effect on bacterial adherence (in words) [2]: Reduction in adherence was only observed in ETEC | inhibition of EF / Edema Toxin induced cAMP production (in words) [1]: extremely effective; also recorded: more active than PGE2-imidazole | IC50 ([1]; IC50): 1.7 to 9 µM | IC50 ([1]; IC50 values): 1.7 to 5 µM | IC50 ([1]; IC50 values, mean): 4.74 µM | IC50 ([1]; IC50 values, range): 0.291 to 12.3 µM | effect on bacterial adherence (in words) [3]: no reduction in adherence | solubility (physchem): ≥ 100 mM | Reduction of fluid accumulation (Cholera toxin (CT)): Yes | Toxicity (Cholera toxin (CT)): No | effect on bacterial growth rate (in words) [4]: no effect on growth | differences in the number of bacteria recovered [5]: 3 logs

COC(=O)c1cccc(NC(=O)c2cccc3c2C(=O)c2ccccc2-3)c1C [FIV-54, 2-Methyl-3-[(9-oxo-9H-fluorene-1-carbonyl)-amino]-benzoic acid methyl ester]
IC50 ([1]; IC50): 12.9 µM

Cc1c(NC(=O)c2cccc3c2C(=O)c2ccccc2-3)cccc1C(=O)O [FIV-55, 2-Methyl-3-[(9-oxo-9H-fluorene-1-carbonyl)-amino]-benzoic acid]
IC50 ([1]; IC50): 11.4 µM

COC(=O)c1ccc(OC)c(NC(=O)c2cccc3c2C(=O)c2ccccc2-3)c1 [FIV-58, 4-Methoxy-3-[(9-oxo-9H-fluorene-1-carbonyl)-amino]-benzoic acid methyl ester]
IC50 ([1]; IC50): 7.2 µM

O=C(Nc1ccc(F)c(Cl)c1)c1cccc2c1C(=O)c1ccccc1-2 [FIV-60, 9-Oxo-9H-fluorene-1-carboxylic acid (3-chloro-4-fluoro-phenyl)-amide]
IC50 ([1]; IC50): 3.8 µM

O=C(Nc1ccccc1)c1cccc2c1C(=O)c1ccccc1-2 [FIV-61, 9-Oxo-9H-fluorene-1-carboxylic acid phenylamide]
IC50 ([1]; IC50): 28.6 µM

CN(C)c1cccc(NC(=O)c2cccc3c2C(=O)c2ccccc2-3)c1 [FIV-65, 9-Oxo-9H-fluorene-1-carboxylic acid (3-dimethylamino-phenyl)-amide]
IC50 ([1]; IC50): 1.5 µM

O=C(Nc1cccc(OC(F)(F)F)c1)c1cccc2c1C(=O)c1ccccc1-2 [FIV-67, 9-Oxo-9H-fluorene-1-carboxylic acid (3-trifluoromethoxy-phenyl)-amide]
IC50 ([1]; IC50): 6.9 µM

N=C(N)c1cccc(NC(=O)c2cccc3c2C(=O)c2ccccc2-3)c1 [FIV-68, 9-Oxo-9H-fluorene-1-carboxylic acid (3-carbamimidoyl-phenyl)-amide]
IC50 ([1]; IC50): 2.71 µM

N#Cc1ccc(NC(=O)c2cccc3c2C(=O)c2ccccc2-3)c(Cl)c1 [FIV-70, 9-Oxo-9H-fluorene-1-carboxylic acid (2-chloro-4-cyano-phenyl)-amide]
IC50 ([1]; IC50): 50 µM
